# Results published in patent US20210300960A1, “SUGAR DERIVATIVE OR SALT THEREOF, AND ANTIBACTERIAL AGENT OR ANTIBACTERIAL ACTIVITY ENHANCER USING SAME” (NAGOYA INSTITUTE OF TECHNOLOGY, priority 2016, published 2021).
# Where two headings read alike, the source gives them in different places.
# Tests used:
# Escherichia coli = assay: Antimicrobial activity enhancing action: MIC of novobiocin or erythromycin alone or in combined use with cyclodextrin derivative, Escherichia coli; format: cell-based
# Protocol: The evaluation was performed by a procedure as follows. Specifically, before testing, each of the bacteria were incubated on a minimal salt medium combined with common bacteria-use dried broth or polypeptone and reached a logarithmic growth phase. […] Some of existing antimicrobial substances fail to exert their inherent antimicrobial activities, due to the bacterial membrane serving as a physical barrier. In these cases, the substances offer high minimum inhibitory concentrations (MICs) necessary for inhibiting the bacterial growth and are considered as having no antimicrobial (antibacterial) activity. In particular, this allows Gram-negative bacteria, which have not only a cytoplasmic membrane, but also a bacterial outer membrane, to have remarkable drug resistance. […] Next, the compound (cyclodextrin derivative) (a) represented by Chemical Formula (11) was evaluated for antimicrobial activity enhancing action through a test performed by a procedure similar to that in Example 3.
# Pseudomonas aeruginosa = assay: Antimicrobial activity enhancing action: MIC of novobiocin or erythromycin alone or in combined use with cyclodextrin derivative, Pseudomonas aeruginosa; format: cell-based; conditions: cyclodextrin derivative 0 μg/mL (single use)
# Protocol: The evaluation was performed by a procedure as follows. Specifically, before testing, each of the bacteria were incubated on a minimal salt medium combined with common bacteria-use dried broth or polypeptone and reached a logarithmic growth phase. […] The testing incubation was performed at an initial bacterial concentration of 1×10^4 cells per milliliter.
# The test was performed using bacteria Escherichia coli and Pseudomonas aeruginosa.
compound,measurement,setting,value
CC[C@H]1OC(=O)[C@H](C)[C@@H](O[C@H]2C[C@@](C)(OC)[C@@H](O)[C@H](C)O2)[C@H](C)[C@@H](O[C@@H]2O[C@H](C)C[C@H](N(C)C)[C@H]2O)[C@](C)(O)C[C@@H](C)C(=O)[C@H](C)[C@@H](O)[C@]1(C)O [erythromycin],MIC,"Escherichia coli; read-out: Minimum inhibitory concentration (MIC) of erythromycin, cyclodextrin derivative 0 μg/mL (single use)",64 µg/mL
CO[C@@H]1[C@@H](OC(N)=O)[C@@H](O)[C@H](Oc2ccc3c(O)c(NC(=O)c4ccc(O)c(CC=C(C)C)c4)c(=O)oc3c2C)OC1(C)C [novobiocin],Minimum inhibitory concentration (MIC) of novobiocin,Pseudomonas aeruginosa,2048 µg/mL
same,MIC,Pseudomonas aeruginosa; read-out: Minimum inhibitory concentration (MIC) of novobiocin,2050 µg/mL
same,MIC,"Escherichia coli; cyclodextrin derivative 0 μg/mL (single use), read-out: Minimum inhibitory concentration (MIC) of novobiocin",128 µg/mL
